Values after ≈ are worked out from the molar mass of the structure shown.
Assays:
[1] = Stability test in phosphate buffer, decomposition rate constants extrapolated to 25°C; format: physicochemical; settings: phosphate buffer adjusted to pH 4.0, 20 µg/ml; estimated from rate constants of decomposition at 100°C and 65°C
Description: (§1) Solubility and stability tests were carried out according to the method of R.H. Blythe et al [J. Pharm. Sci., vol. 66, page 785 (1977)].
A phosphate buffer (pH 7) (0.1M disodium hydrogenphosphate + 0.1M sodium dihydrogenphosphate) was prepared, and adjusted to pH 4.0 with phosphoric acid. Compound 3 was added to the buffered solution at the concentration of 20 µg/ml, and which was used as a test solution. The content of Compound 3 in the test solution stored at 100°C and 65°C respectively was determined, and the rate constant of decomposition at each temperature was calculated. As a result, it was estimated that the term for remaining a 95% content of Compound 3 at 25°C was 17.6 years.

blood platelet = experiment: Human in vitro blood platelet aggregation inhibition test (ADP-induced, PRP); format: cell-based; settings: 0.05 h
Description: Citrated blood (the volume ratio of 3.13 % sodium citrate solution and blood is 1:9) was collected from the cubital vein of a healthy human who had not received any drugs known to affect the function of blood platelet within 2 weeks prior to starting the test, and centrifuged at 120 x g at room temperature for 15 minutes. The resulting supernatant was separated to give platelet rich plasma (PRP), the remaining precipitate was further centrifuged at 1500 x g for 10 minutes, and the resulting supernatant was separated to give platelet poor plasma (PPP).
The blood platelet counts of PRP were adjusted to 50 ∼ 60 × 10^4/µl by diluting with PPP.
Blood platelet aggregation was determined according to the method of Born G.V.R., [Nature, vol. 194, page 927 (1962)] using adenosine diphosphate (produced by Sigma Co.; hereinafter referred to as "ADP") as an aggregation-inducing substance. That is, a solution of the compound of Formula (I) as a test drug in dimethyl sulfoxide was adjusted to the desired concentration with a physiological saline solution. 25 µl of the solution was added to 250 µl of PRP and incubated at 37°C for 3 minutes, and 25 µl of ADP (final concentration : 7 µM) was added thereto. […]

[2] = Solubility test in Britton-Robinson buffered solution, HPLC; format: physicochemical; settings: britton-robinson buffer, aqueous buffer; Britton - Robinson broad buffered solution pH 4, ionic strength 0.125, 25°C
Description: as §1
A Britton - Robinson broad buffered solution (pH 4) was prepared, and adjusted to 0.125 of the ionic strength by adding sodium chloride. An excess amount of Compound 3 was added to the resulting solution and dissolved with heating, and then after stirring at 25°C for a desired time, the solubility which became constant was measured by HPLC under the following conditions. • Column : TSK-Gel, ODS-80TM, 4φ × 150 mm • Column temperature : 50°C • Mobile phase : Water : CH3CN : SDS : phosphoric acid = 500:500:3:1 • Detection wave length : 246 nm • Flow rate : 1.0 ml/min. • Injection amount : 10 µl

Cc1c(C(=O)NCCC(=O)O)sc(=NC(=O)c2ccc(C(=N)N3CCN(c4ccccn4)CC3)cc2)n1C [Compound 3, N-(2-Carboxyethyl)-2-{4-[4-(pyridin-2-yl)piperadinylimidoyl]benzoylimino}-3,4-dimethyl-3H-thiazoline-5-carboxamide]
term for remaining a 95% content at 25°C [1]: 17.6 years
IC50 (blood platelet): 21.5 nM
solubility [2]: 4300 µg/mL (≈ 8.03 mM)

Reference: patent EP0739894A1, “THIAZOLINE DERIVATIVE” (TAISHO PHARMACEUTICAL CO. LTD, priority 1994, dated 1995)
